Data from US6737383B1, “Herbicidal oxadiazolidines” (priority 1999, dated 2004).

Legend:
bedstraw = assay: Test B pre/postemergence bedstraw; assay type: in vivo, Galium aparine; conditions: Postemergence
Outline: (§1)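 Response is a visual 0-to-10 score relative to untreated plants, where 0 means no effect and 10 means complete control, taken twelve to sixteen days after application. Treatments went onto soil at planting and onto foliage of 1- to 4-leaf plants, using a surfactant-containing non-phytotoxic solvent.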

blackgrass = assay: Test B pre/postemergence blackgrass; assay type: in vivo, Alopecurus myosuroides
Outline: as §1

surinam grass = assay: Test B pre/postemergence surinam grass; assay type: in vivo, Brachiaria decumbens
Outline: as §1

cocklebur = assay: Test B pre/postemergence cocklebur; assay type: in vivo, Xanthium strumarium
Outline: as §1

corn = assay: Test B pre/postemergence corn; assay type: in vivo, Zea mays
Outline: as §1

crabgrass = assay: Test B pre/postemergence crabgrass; assay type: in vivo, Digitaria sanguinalis
Outline: as §1

giant foxtail = assay: Test B pre/postemergence giant foxtail; assay type: in vivo, Setaria faberii
Outline: as §1

morningglory = assay: Test B pre/postemergence morningglory; assay type: in vivo, Ipomoea hederacea
Outline: as §1

pigweed = assay: Test B pre/postemergence pigweed; assay type: in vivo, Amaranthus retroflexus
Outline: as §1

rape = assay: Test B pre/postemergence rape; assay type: in vivo, Brassica napus
Outline: as §1

soybean = assay: Test B pre/postemergence soybean; assay type: in vivo, Glycine max
Outline: as §1

sugar beet = assay: Test B pre/postemergence sugar beet; assay type: in vivo, Beta vulgaris
Outline: as §1

velvetleaf = assay: Test B pre/postemergence velvetleaf; assay type: in vivo, Abutilon theophrasti
Outline: as §1

wheat = assay: Test B pre/postemergence wheat; assay type: in vivo, Triticum aestivum
Outline: as §1

wild oat = assay: Test B pre/postemergence wild oat; assay type: in vivo, Avena fatua
Outline: as §1

purple nutsedge = assay: Test B pre/postemergence purple nutsedge; assay type: in vivo, Cyperus rotundus
Outline: as §1

rice = assay: Test B flood test rice; assay type: in vivo, Oryza sativa
Outline: (§2)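 Read-out is a visual response score from 0 (no effect) to 10 (complete control), assigned by comparison with untreated controls. Treatment was applied at the 2-leaf stage, and plants stayed in the greenhouse for twelve to sixteen days before scoring.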

smallflower flatsedge = assay: Test B flood test smallflower flatsedge; assay type: in vivo, Cyperus difformis
Outline: as §2

duck salad = assay: Test B flood test duck salad; assay type: in vivo, Heteranthera limosa; conditions: for Plant response rating, Ducksalad: scale 0 to 10, 0 is no effect, 10 is complete control; for Ducksalad plant response rating: scale of 0 to 10 where 0 is no effect and 10 is complete control
Outline: as §2

bamyardgrass = assay: Test B flood test barnyardgrass; assay type: in vivo, Echinochloa crus-galli; conditions: for Plant response rating, Barnyardgrass: scale 0 to 10, 0 is no effect, 10 is complete control; for Barnyardgrass plant response rating: scale of 0 to 10 where 0 is no effect and 10 is complete control
Outline: as §2

[1] = Postemergence, Rate 125 g/ha, scale 0 to 10, 0 is no effect, 10 is complete control
[2] = Postemergence, Rate 250 g/ha, scale 0 to 10, 0 is no effect, 10 is complete control
[3] = Postemergence, Rate 500 g/ha, scale of 0 to 10 where 0 is no effect and 10 is complete control
[4] = Preemergence, Rate 62 g/ha, scale 0 to 10 (0 no effect, 10 complete control)
[5] = Preemergence, Rate 125 g/ha, scale of 0 to 10 where 0 is no effect and 10 is complete control
[6] = Preemergence, Rate 250 g/ha, scale of 0 to 10 where 0 is no effect and 10 is complete control
[7] = Preemergence, Rate 500 g/ha, scale 0 to 10, 0 is no effect, 10 is complete control
[8] = Rate 62 g/ha, Postemergence, scale of 0 to 10 where 0 is no effect and 10 is complete control
[9] = Preemergence, Rate 250 g/ha, scale 0 to 10, 0 is no effect, 10 is complete control
[10] = Postemergence section (flood test species), Rate 500 g/ha, scale of 0 to 10 where 0 is no effect and 10 is complete control
[11] = flood test species, listed under Postemergence, Rate 250 g/ha, scale 0 to 10, 0 is no effect, 10 is complete control
[12] = Postemergence (flood test), Rate 125 g/ha
[13] = Postemergence section (flood test species), Rate 500 g/ha
[14] = Rate 62 g/ha, Postemergence (flood test species)
[15] = flood test species, listed under Postemergence, Rate 250 g/ha

CC(C)N(C(=O)n1oc(=O)n(C2CCOCC2)c1=O)c1ccccc1 [Compound 416]
Plant response rating, Bedstraw (bedstraw; Rate 125 g/ha, scale 0 to 10, 0 is no effect, 10 is complete control): 3
Bedstraw plant response rating (bedstraw; Rate 500 g/ha, scale of 0 to 10 where 0 is no effect and 10 is complete control): 7
Plant response rating, Blackgrass (blackgrass; [1]): 9
Plant response rating, Blackgrass (blackgrass; [2]): 9
Blackgrass plant response rating (blackgrass; [3]): 9
Plant response rating, Blackgrass (blackgrass; [4]): 8
Plant response rating, Blackgrass (blackgrass; [5]): 9
Blackgrass plant response rating (blackgrass; [6]): 10
Blackgrass plant response rating (blackgrass; [7]): 10
Blackgrass plant response rating (blackgrass; [8]): 6
Plant response rating, B. signalgrass (surinam grass; [1]): 6
Plant response rating, B. signalgrass (surinam grass; [2]): 8
B. signalgrass plant response rating (surinam grass; [3]): 9
Plant response rating, B. signalgrass (surinam grass; [4]): 7
Plant response rating, B. signalgrass (surinam grass; [5]): 7
B. signalgrass plant response rating (surinam grass; [6]): 7
B. signalgrass plant response rating (surinam grass; Preemergence, Rate 500 g/ha, scale of 0 to 10 where 0 is no effect and 10 is complete control): 9
B. signalgrass plant response rating (surinam grass; [8]): 2
Plant response rating, Cocklebur (cocklebur; [1]): 0
Plant response rating, Cocklebur (cocklebur; [2]): 0
Cocklebur plant response rating (cocklebur; [3]): 5
Plant response rating, Cocklebur (cocklebur; [4]): 0
Plant response rating, Cocklebur (cocklebur; [5]): 0
Cocklebur plant response rating (cocklebur; [9]): 0
Cocklebur plant response rating (cocklebur; [7]): 4
Cocklebur plant response rating (cocklebur; [8]): 0
Plant response rating, Corn (corn; [1]): 0
Plant response rating, Corn (corn; [2]): 5
Corn plant response rating (corn; [3]): 7
Plant response rating, Corn (corn; [4]): 0
Plant response rating, Corn (corn; [5]): 0
Corn plant response rating (corn; [9]): 3
Corn plant response rating (corn; [7]): 6
Corn plant response rating (corn; [8]): 0
Plant response rating, Crabgrass (crabgrass; [1]): 6
Plant response rating, Crabgrass (crabgrass; [2]): 9
Crabgrass plant response rating (crabgrass; [3]): 9
Plant response rating, Crabgrass (crabgrass; [4]): 7
Plant response rating, Crabgrass (crabgrass; [5]): 10
Crabgrass plant response rating (crabgrass; [9]): 10
Crabgrass plant response rating (crabgrass; [7]): 10
Crabgrass plant response rating (crabgrass; [8]): 2
Plant response rating, Giant foxtail (giant foxtail; [1]): 8
Plant response rating, Giant foxtail (giant foxtail; [2]): 9
Giant foxtail plant response rating (giant foxtail; [3]): 9
Plant response rating, Giant foxtail (giant foxtail; [4]): 8
Plant response rating, Giant foxtail (giant foxtail; [5]): 10
Giant foxtail plant response rating (giant foxtail; [9]): 10
Giant foxtail plant response rating (giant foxtail; [7]): 10
Giant foxtail plant response rating (giant foxtail; [8]): 7
Plant response rating, Morningglory (morningglory; [2]): 9
Morningglory plant response rating (morningglory; [3]): 9
Plant response rating, Morningglory (morningglory; [4]): 0
Plant response rating, Morningglory (morningglory; [5]): 4
Morningglory plant response rating (morningglory; [9]): 6
Morningglory plant response rating (morningglory; [7]): 8
Plant response rating, Redroot pigweed (pigweed; [2]): 2
Redroot pigweed plant response rating (pigweed; [3]): 7
Plant response rating, Redroot pigweed (pigweed; [4]): 7
Plant response rating, Redroot pigweed (pigweed; [5]): 9
Redroot pigweed plant response rating (pigweed; [9]): 10
Redroot pigweed plant response rating (pigweed; [7]): 10
Plant response rating, Rape (rape; [2]): 3
Rape plant response rating (rape; [3]): 3
Plant response rating, Rape (rape; [4]): 7
Plant response rating, Rape (rape; [5]): 9
Rape plant response rating (rape; [9]): 9
Rape plant response rating (rape; [7]): 10
Plant response rating, Soybean (soybean; [2]): 6
Soybean plant response rating (soybean; [3]): 7
Plant response rating, Soybean (soybean; [4]): 0
Plant response rating, Soybean (soybean; [5]): 4
Soybean plant response rating (soybean; [9]): 7
Soybean plant response rating (soybean; [7]): 9
Plant response rating, Sugarbeets (sugar beet; [2]): 0
Sugarbeets plant response rating (sugar beet; [3]): 2
Plant response rating, Sugarbeets (sugar beet; [4]): 3
Plant response rating, Sugarbeets (sugar beet; [5]): 4
Sugarbeets plant response rating (sugar beet; [9]): 7
Sugarbeets plant response rating (sugar beet; [7]): 9
Plant response rating, Velvetleaf (velvetleaf; [2]): 0
Velvetleaf plant response rating (velvetleaf; [3]): 6
Plant response rating, Velvetleaf (velvetleaf; [4]): 0
Plant response rating, Velvetleaf (velvetleaf; [5]): 3
Velvetleaf plant response rating (velvetleaf; [9]): 6
Velvetleaf plant response rating (velvetleaf; [7]): 8
Wheat plant response rating (wheat; [3]): 7
Plant response rating, Wheat (wheat; [4]): 2
Plant response rating, Wheat (wheat; [5]): 4
Wheat plant response rating (wheat; [9]): 7
Wheat plant response rating (wheat; [7]): 10
Wild oats plant response rating (wild oat; [3]): 7
Plant response rating, Wild oats (wild oat; [4]): 6
Plant response rating, Wild oats (wild oat; [5]): 7
Wild oats plant response rating (wild oat; [9]): 8
Wild oats plant response rating (wild oat; [7]): 10
Plant response rating, Nutsedge (purple nutsedge; [2]): 0
Nutsedge plant response rating (purple nutsedge; [3]): 0
Plant response rating, Nutsedge (purple nutsedge; [4]): 0
Plant response rating, Nutsedge (purple nutsedge; [5]): 0
Nutsedge plant response rating (purple nutsedge; [9]): 3
Nutsedge plant response rating (purple nutsedge; [7]): 4
Rice plant response rating (rice; [10]): 0
Plant response rating, Rice (rice; [11]): 0
S. Flatsedge plant response rating (smallflower flatsedge; [10]): 0
Plant response rating, S. Flatsedge (smallflower flatsedge; [11]): 0
Plant response rating, Ducksalad (duck salad; [12]): 0
Ducksalad plant response rating (duck salad; [13]): 0
Ducksalad plant response rating (duck salad; [14]): 0
Plant response rating, Ducksalad (duck salad; [15]): 0
Plant response rating, Barnyardgrass (bamyardgrass; [12]): 0
Barnyardgrass plant response rating (bamyardgrass; [13]): 0
Barnyardgrass plant response rating (bamyardgrass; [14]): 0
Plant response rating, Barnyardgrass (bamyardgrass; [15]): 0
